Patent EP0033042A1, “Ophthalmic inserts for lowering intraocular pressure comprising carbonic anhydrase inhibitors” (Merck & Co., Inc., priority 1980, dated 1981)
Where a name gives a salt, the structure may show the parent alone.

Columns and labels:
[1] = test system: INTRAOCULAR PRESSURE (IOP) IN RABBITS WITH ALPHA CHYMOTRYPSIN-INDUCED OCULAR HYPERTENSION; test: Topical administration, effect on IOP in rabbits with alpha chymotrypsin-induced ocular hypertension (tonometry); type: in vivo; settings: for Change in IOP (mm Hg) After Drug Administration: 12.1 % by wt., 50µl of 0.5% hydroxyethylcellulose; for Change in IOP (mm Hg) After Drug Administration / IOP (mm Hg) t=0 min.: mean ± standard deviation, Table III; for IOP (mm Hg) t=0 min.: immediately prior the drug administration (served as control), 9 eyes; for mean ΔP (mean of ΔP versus IOP at t0): 8 animals; for mean ΔP (mean of ΔP versus IOP at t0) / Intraocular pressure, mean ± stand deviation: 50μl in 0.5% hydroxyethyl cellulose; for Intraocular pressure, mean ± stand deviation: mean of 8 animals
[2] = test system: NORMAL INTRAOCULAR PRESSURE IN UNANESTHETIZED RABBITS; test: Topical administration, effect on normal intraocular pressure in unanesthetized rabbits; type: in vivo; settings: 12.1 % by wt., 50μl in both eyes, in 0.5% hydroxyethylcellulose
[3] = 0 min after instillation (baseline), 14 eyes

Row | SMILES | Change in IOP (mm Hg) After Drug Administration ([1]; 30 min) [mm Hg] | Change in IOP (mm Hg) After Drug Administration ([1]; 60 min) [mm Hg] | Change in IOP (mm Hg) After Drug Administration ([1]; 120 min) [mm Hg] | Change in IOP (mm Hg) After Drug Administration ([1]; 180 min) [mm Hg] | Change in IOP (mm Hg) After Drug Administration ([1]; 240 min) [mm Hg] | Change in IOP (mm Hg) After Drug Administration ([1]; 300 min) [mm Hg] | IOP (mm Hg) t=0 min. [1] [mm Hg] | Mean Intraocular Pressure ± SD [2, 3] [mm Hg] | Mean Intraocular Pressure ± SD ([2]; 30 min after instillation) [mm Hg] | Mean Intraocular Pressure ± SD ([2]; 60 min after instillation) [mm Hg] | Mean Intraocular Pressure ± SD ([2]; 120 min after instillation) [mm Hg] | Mean Intraocular Pressure ± SD ([2]; 180 min after instillation) [mm Hg] | Mean Intraocular Pressure ± SD ([2]; 240 min after instillation) [mm Hg] | Mean Intraocular Pressure ± SD ([2]; 300 min after instillation) [mm Hg] | also measured
1 | CC(=O)Nc1nnc(S(N)(=O)=O)s1.[K].[K] [Acetazolamide Dipotassium salt, N-[5-(aminosulfonyl)-1,3,4-thiadiazol-2-yl]acetamide dipotassium salt] | -1±3.1 | -3±4.8 | -5±4.6 | -6±5.3 | -6±5.3 | -3±6.5 | 37±6.4 | 19±1.3 | 19±1.3 | 20±1.4 | 19±1.9 | 19±1.9 | 20±1.8 | 21±1.7 | –
2 | NS(=O)(=O)c1cc(Cl)c(Cl)c(S(N)(=O)=O)c1 [Dichlorphenamide Dipotassium salt, 4,5-Dichloro-m-benzenedisulfon-amide dipotassium salt . hemihydrate] | -1±5.3 | -4±3.8 | -7±6.2 | -6±6.8 | -4±6.2 | -3±6.7 | 38±5.9 | 20±1.8 | 18±2.4 | 18±2.4 | 17±2.1 | 15±2.4 | 17±1.8 | 20±2.6 | –
3 | CC(=O)N=c1sc(S(N)(=O)=O)nn1C.[Na] [Methazolamide Sodium salt, N-[5-(aminosulfonyl)-3-methyl-1,3,4-thiadiazol-2(3H)-ylidene]acetamide Sodium Salt] | -3±4.6 | -5±4.7 | -6±6.0 | -7±3.7 | -5±5.4 | -7±6.3 | 39±7.7 | 20±1.9 | 20±3.0 | 20±2.7 | 19±3.3 | 18±2.7 | 20±3.4 | 20±2.8 | mean ΔP (mean of ΔP versus IOP at t0) ([1]; 30 min.): -3.1±4.58 mm Hg; mean ΔP (mean of ΔP versus IOP at t0) ([1]; 60 min.): -5.1±4.68 mm Hg; mean ΔP (mean of ΔP versus IOP at t0) ([1]; 120 min.): -5.6±6.02 mm Hg; mean ΔP (mean of ΔP versus IOP at t0) ([1]; 180 min.): -6.8±3.70 mm Hg; mean ΔP (mean of ΔP versus IOP at t0) ([1]; 240 min.): -5.4±5.42 mm Hg; mean ΔP (mean of ΔP versus IOP at t0) ([1]; 300 min.): -6.9±6.27 mm Hg; Intraocular pressure, mean ± stand deviation ([1]; 0 min. (baseline)): 39.1±7.72 mm Hg; Intraocular pressure, mean ± stand deviation ([1]; 30 min.): 36.0±8.09 mm Hg; Intraocular pressure, mean ± stand deviation ([1]; 60 min.): 34.0±7.37 mm Hg; Intraocular pressure, mean ± stand deviation ([1]; 120 min.): 33.5±8.91 mm Hg; Intraocular pressure, mean ± stand deviation ([1]; 180 min.): 32.4±6.05 mm Hg; Intraocular pressure, mean ± stand deviation ([1]; 240 min.): 33.8±7.91 mm Hg; Intraocular pressure, mean ± stand deviation ([1]; 300 min.): 32.3±7.67 mm Hg
